Laboratory results reported in patent US7375125B2, “Melanocortin-4 receptor binding compounds and methods of use thereof” (Ore Pharmaceuticals, Inc., priority 1999, dated 2008).
Structures can show the parent of a compound that is named as a salt.

Tested on: lean C57BL/6J mice
Test: In vivo assay for MC4-R antagonist activity: food intake of food deprived lean mice treated with MT II
Conditions: 15 nmol intracerebroventricular prior to MT II 0.05 nmol, six hour period (FIGS. 2, 3)
Description: The following in vivo assay was used to test the effects of MC4-R antagonists on mice.
Male lean C57BL/6J mice were individually housed in macrolon cages (22±2 C.°; 12:12 h light/dark cycle with lights off at 6 pm). Tap water and mouse chow diet were given ad libitum. Mice were stereotaxically implanted with a chronic guide cannula aimed to the third ventricle (intracerabroventricular) one week prior to testing.
In this experiment, food deprived lean mice were injected intracerabroventricularly with either Compound N or Compound O, at a dose of 15 nmol prior to injection of MT II at the dose of 0.05 nmol.

Row | Compound | effect on food intake of mice treated with the MC4-R agonist MT II
1 | c1ccc(C2=NCCCN2)c(SCc2cccc3ccccc23)c1 [O, 2-[2-(Naphthalen-1-ylmethylsulfanyl)-phenyl]-1,4,5,6-tetrahydro-pyrimidine; hydrochloride] | did not significantly effect the food intake
2 | COc1ccc([N+](=O)[O-])cc1CSc1ccccc1C1=NCCCN1 [N, 2-[2-(2-Methoxy-5-nitro-benzylsulfanyl)-phenyl]-1,4,5,6-tetrahydro-pyrimidine; hydrobromide] | partially reverses the effect
